# Data taken from paper PMC6687188, “Novel lactate dehydrogenase inhibitors with in vivo efficacy against Cryptosporidium parvum” (PLoS Pathogens, 2019).
# Target: recombinant CpLDH protein (Cryptosporidium parvum, UniProt Q9GT92, F198L/K295E/R251K)
# Settings: not given
row,SMILES,MEAN CpLDH INHIBITION (%)
1,CC[C@](C)(O)C(=O)O[C@H]1C(=O)O[C@@H]2C[C@H]3C(C)=CC(=O)[C@@H](O)[C@]3(C)[C@H]3[C@@]4(O)OC[C@]32[C@@H]1[C@@H](C)[C@H]4O [NSC132791],-161.16
2,CN(C)c1ccc(/C=C/C(=O)c2ccccc2)cc1Br [NSC643164],-21.20
3,CC(C)=CC1C(C(=O)O)C1(C)C (centres unmarked) [NSC11779],-22.15
4,Cl.NCCSSCc1ccccc1CSSCCN [NSC624169],-25.23
5,Cc1nc2c(o1)C(=O)c1ccccc1C2=Nc1ccccc1 [NSC650573],-21.28
6,COC(=O)C1CCC(=O)N1C(c1ccc(OC)cc1)c1cc(OC)c(OC)c(OC)c1 (centres unmarked) [NSC673622],-14.54
7,O=C1C(Br)=C(Br)C(=O)c2ccccc21 [NSC618332],-7.70
8,Cc1cccc(Cl)c1NC(=O)/C=C/c1ccccc1 [NSC191393],-10.83
9,O=C1C=C(Nc2ccccc2C(=O)CC(=O)C(=O)Nc2ccc(Cl)cc2)c2ccccc2C1=O [NSC641253],-12.80
10,C/C(=N\NC(=S)N1CCN(C2CCCCCC2)CC1)c1ccccn1 [NSC376265],-34.26
11,CC(C)CCCC(=O)CCCCCCC(=O)CCN(O)C(=O)C(N)CO.O=S(=O)(O)O (centres unmarked) [NSC106997],-28.98
12,COc1ccc(C2C=C(c3ccc4c(c3)OCO4)Oc3c2c(=O)oc2ccccc32)cc1OC (centres unmarked) [NSC211489],-11.02
13,Nc1nc2c(ncn2[C@@H]2O[C@H](CO)[C@@H](O)[C@H]2O)c(=O)[nH]1 [NSC19994],-14.24
14,CC(=O)OCc1c2ccccc2c(C)c2c1cc(F)c1ccccc12 [NSC623135],-28.47
15,CCn1c(O)c(C=Nc2ccccc2)s/c1=N/Nc1ncc(CC(=O)Nc2ccccc2C)s1 [NSC658350],-19.59
16,O=S1(=O)CCN(c2ccccc2CC(c2c[nH]c3ccccc23)c2c[nH]c3ccccc23)CC1 [NSC35949],-34.03
17,COCC(=O)OC1CCn2c1nc1c2C(=O)C(C)=C(NC(C)=O)C1=O (centres unmarked) [NSC651084],-15.88
18,CC(C)[C@@H](C)/C=C/[C@@H](C)[C@H]1CC[C@H]2C3=CC=C4C[C@@H](O)CC[C@]4(C)[C@H]3CC[C@]12C [NSC62791],-22.35
19,COc1cc(O)c(Cc2ccccc2O)c(O)c1C(=O)CCc1ccccc1 [NSC241906],-0.38
20,COc1cc2oc3cc(=O)cc4oc(-c5ccccc5)cc(c2c2c1CCC(c1ccccc1)O2)c43 (centres unmarked) [NSC376248],-15.03
21,C1CN(c2nnc(N3CCC3)nn2)C1 [NSC625748],-117.70
22,CC1CCC2(OC1)OC1CC3C4CC=C5CC(OC6OC(CO)C(OC7OC(C)C(OC8OC(C)C(O)C(O)C8O)C(O)C7O)C(O)C6OC6OC(C)C(O)C(O)C6O)CCC5(C)C4CCC3(C)C1C2C (centres unmarked) [NSC306864],-7.27
23,COc1cccc2c1cc([N+](=O)[O-])c1c(C(=O)O)cc3c(c12)OCO3 [NSC11926],-19.30
24,O=C1C(=O)c2ccccc2C(O)=C1CCCc1ccc(Oc2ccccc2)cc1 [NSC377],-0.53

row,SMILES,MEAN CpLDH INHIBITION (%)
1,CC(C)c1cccc(O)c(=O)c1 [NSC18804],-36.91
2,C=C1C(=O)OC2C1CC1OC2C(C)CCC/C(C)=C\CCC1(C)O (centres unmarked) [NSC282752],-63.64
3,N=C1C=C(N)C(=O)c2[nH]c(=O)ccc21 [NSC111041],-37.64
4,CC(C)c1oc(=O)cc2c1[C@@H](O)[C@H]1OC(=O)[C@@]3(C)[C@@H](O)[C@H]4O[C@H]4[C@@]2(C)[C@@H]13 [NSC211500],-13.24
5,COc1ccc2c(c1)C=C([N+](=O)[O-])C(C1OC(C)(C)OC1C1COC(C)(C)O1)O2 (centres unmarked) [NSC618261],-65.69
6,O=C(CC(=O)c1ccccc1NC1=Cc2ccccc2C(=O)C1=O)C(=O)NC1=C(Cl)C(=O)c2ccccc2C1=O [NSC641245],-19.61
7,COC(=O)c1ccccc1NC(=O)C(=O)CC(=O)c1ccccc1NC1=CC(=O)C(=O)c2ccccc21 [NSC641240],-190.19
8,CC(C)=CCC(OC(=O)C=C(C)C)C1=CC(=O)c2c(O)ccc(O)c2C1=O (centres unmarked) [NSC140377],-8.72
9,O=S(=O)(c1cccc(N=C=S)c1)c1cccc(N=C=S)c1 [NSC140911],-0.44
10,COc1nc(N)nc2nc[nH]c12 [NSC37364],-36.91
11,CN(C)c1ccc2c(SCC(=O)OCC(=O)[C@@]3(O)CC[C@H]4[C@@H]5CCC6=CC(=O)C=C[C@]6(C)[C@H]5C(=O)C[C@@]43C)c3ccc(N(C)C)cc3nc2c1 [NSC337851],-16.37
12,COc1ccc2nc(C)cc(NCCCCCCCCCNc3cc(C)nc4ccc(OC)cc34)c2c1 [NSC10010],-19.54
13,CCOC(=O)C1=C(O)CSC1=Nc1ccc(N=C2SCC(O)=C2C(=O)OCC)cc1 [NSC623746],-45.42
14,Cc1ccc(C2NC(=O)c3ccccc3N2)s1 (centres unmarked) [NSC175634],-31.59
15,C[C@H](CN(C)C)C(=O)c1ccccc1C(=O)O [NSC22992],-3.61
16,COc1ccc2c(c1[N+](=O)[O-])CC[C@@H]1[C@@H]2CC[C@]2(C)C(=O)CC[C@@H]12 [NSC321803],-29.51
17,O=[N+]([O-])c1ccc2c(c1)/C(=N/N=C1c3ccccc3Cc3ccccc31)c1cc([N+](=O)[O-])cc([N+](=O)[O-])c1-2 [NSC658139],-4.51
18,COc1ccc(N=C2C(=Nc3ccc(OC)cc3)N(c3ccc(N(C)C)cc3)C(=S)N2c2ccc(OC)cc2)cc1 [NSC671394],-158.34
19,CN(C)c1ccc(/C=C2\C=Cc3ccccc32)cc1 [NSC80087],-24.95
20,Nc1nc(-c2cccs2)cs1 [NSC54297],-31.48
21,O=C1Cc2c(-c3ccccc3)cc(-c3cccc(Cl)c3)nc2-c2ccccc2N1 [NSC684480],-22.58
22,O=C(c1nc2ccc(Cl)cc2[nH]c1=O)C(O)c1ccc2c(c1)OCO2 (centres unmarked) [NSC642649],-27.23
23,Cn1c(=O)c2nc3sc4c(n3c2n(C)c1=O)C(=O)c1ccccc1C4=O [NSC634568],-8.97
24,C=C1C(=O)C23CC[C@@H]4C(C)(C(=O)OC)CCCC4(C)[C@@H]2CCC1(O)C3 (some centres unmarked) [NSC620358],-24.86

row,SMILES,MEAN CpLDH INHIBITION (%)
1,CC1=C(N2CC2)C(=O)C(CO)=C(N2CC2)C1=O [NSC697726],-69.94
2,CC[C@@]1(O)C[C@H](O[C@H]2C[C@H](N(C)C)[C@H](O)[C@H](C)O2)c2c(O)c3c(c(O)c2[C@H]1O[C@H]1C[C@H](N(C)C)[C@H](O)[C@H](C)O1)C(=O)c1cccc(O)c1C3=O [NSC136044],-159.43
3,C[C@]12CC[C@H](O)C[C@H]1CC[C@@H]1[C@@H]2CC[C@]2(C)[C@@H](C3=CC(=O)OC3)CC[C@]12O [NSC407806],-16.59
4,COc1ccc(Cc2nc3ccccc3s2)cc1OC [NSC632233],-7.14
5,COc1ccc(/C=C2\CCc3ccccc3C2=O)cc1OC [NSC643175],-25.23
6,Cc1c2cnccc2c(C)c2c1c1ccccc1n2CCOC(=O)c1ccccc1 [NSC163443],-14.23
7,CN1c2c(nc(N)[nH]c2=O)NCC1CCNc1ccc(C(=O)N[C@@H](CCC(=O)[O-])C(=O)[O-])cc1.[Na+].[Na+] (some centres unmarked) [NSC139490],-2.06
8,CC[C@@]1(O)C(=O)OCc2c1cc1n(c2=O)Cc2cc3c(N)cccc3nc2-1 [NSC629971],-14.81
9,O=C1C=C(Nc2ccccc2C(=O)CC(=O)C(=O)Nc2ccc(Cl)c(Cl)c2)c2ccccc2C1=O [NSC641250],-16.86
10,Oc1ccc(-c2nc3ccccc3s2)cc1 [NSC33004],-8.80
11,C[C@H](CN1CC(=O)NC(=O)C1)N1CC(=O)NC(=O)C1 [NSC169779],-13.00
12,COc1cc(-c2cc(=O)c3c(OC)c(OC)c(OC)c(OC)c3o2)cc(OC)c1OC [NSC67580],-41.90
13,Cc1ccc2ccc3ccc(C)nc3c2n1 [NSC4280],-27.03
14,C[n+]1ccc(-c2cc[n+](C)cc2)cc1.[Cl-].[Cl-] [NSC263500],-58.44
15,CC1CCOC(=O)/C=C/C=C/C(=O)OC2CC3OC4C5OC5(C)C(O)CC4(COC(=O)C1O)C2(C)C31CO1 (centres unmarked) [NSC328166],-4.71
16,Cc1ccc(C)c(NC(=O)C(=O)C(C(=O)c2ccc3ccccc3c2)C2OC(=O)c3ccccc32)c1 (centres unmarked) [NSC640985],-66.15
17,COc1cc(OC)c2c(C)cc(=O)oc2c1 [NSC688795],-40.28
18,COC1=C(C)C(=O)C2=C(C1=O)C(CO)N1C(C#N)C3CC4C(C1C2N1CCOC41)N3C (centres unmarked) [NSC349644],-64.47
19,COC(C(=O)C(O)C(C)O)C1Cc2cc3cc(OC4CC(OC5CC(O)C(O)C(C)O5)C(O)C(C)O4)c(C)c(O)c3c(O)c2C(=O)C1OC1CC(OC2CC(OC3CC(O)C(OC)C(C)O3)C(O)C(C)O2)C(O)C(C)O1 (centres unmarked) [NSC269146],-38.98
20,CCCC(=O)OCC1OC(n2ccc(N)nc2=O)C(OC(=O)CCC)C1OC(=O)CCC (centres unmarked) [NSC138429],-38.75
21,O=C1C=C(Nc2cccnc2)c2ccccc2C1=O [NSC637729],-66.55
22,CN=c1sc2c(n1C)C(=O)c1ccccc1C2=O [NSC659501],-27.66
23,CC[C@@]1(O)C[C@H](O[C@H]2C[C@H](N(C)C)[C@H](O[C@H]3C[C@H](O)[C@H](O[C@H]4C[C@H](O)[C@H](O)[C@H](C)O4)[C@H](C)O3)[C@H](C)O2)c2c(cc3c(c2O)C(=O)c2c(O)ccc(O)c2C3=O)[C@H]1C(=O)OC [NSC265211],-47.33
24,Oc1ccc2ccccc2c1N=Nc1cccc2ccccc12 [NSC45575],-10.08

# Same assay, conditions: 20 μM compound; 10 mM pyruvate, 1 mM NADH; values below 0 = augmenters
row,SMILES,MEAN CpLDH INHIBITION (%)
1,Oc1cccc2cccnc12 [NSC285166],-48.97
2,C/C(=N\NC(=S)N1CCC1)c1ccccn1 [NSC319726],-58.85
